Measurements from the kinase profiling compilation of Christmann-Franck et al. (2016).

How the values were obtained:
PRKCH (human) = PRKCH (human) (UniProt P24723); experiment: Caliper, Mobility shift assay off-chip
ERBB4 (human) = ERBB4 (human) (UniProt Q15303); experiment: Caliper, Mobility shift assay off-chip
CDC42BPA (human) = CDC42BPA (human) (UniProt Q5VT25); experiment: Caliper, Mobility shift assay off-chip
RPS6KB2 (human) = RPS6KB2 (human) (UniProt Q9UBS0); experiment: Caliper, Mobility shift assay off-chip
RPS6KA2 KD1 KD2 (human) = RPS6KA2 KD1 KD2 (human) (UniProt Q15349); experiment: Caliper, Mobility shift assay off-chip
RPS6KA2 KD1 KD2 (human), sequence (Q15349 whole entry, looked up): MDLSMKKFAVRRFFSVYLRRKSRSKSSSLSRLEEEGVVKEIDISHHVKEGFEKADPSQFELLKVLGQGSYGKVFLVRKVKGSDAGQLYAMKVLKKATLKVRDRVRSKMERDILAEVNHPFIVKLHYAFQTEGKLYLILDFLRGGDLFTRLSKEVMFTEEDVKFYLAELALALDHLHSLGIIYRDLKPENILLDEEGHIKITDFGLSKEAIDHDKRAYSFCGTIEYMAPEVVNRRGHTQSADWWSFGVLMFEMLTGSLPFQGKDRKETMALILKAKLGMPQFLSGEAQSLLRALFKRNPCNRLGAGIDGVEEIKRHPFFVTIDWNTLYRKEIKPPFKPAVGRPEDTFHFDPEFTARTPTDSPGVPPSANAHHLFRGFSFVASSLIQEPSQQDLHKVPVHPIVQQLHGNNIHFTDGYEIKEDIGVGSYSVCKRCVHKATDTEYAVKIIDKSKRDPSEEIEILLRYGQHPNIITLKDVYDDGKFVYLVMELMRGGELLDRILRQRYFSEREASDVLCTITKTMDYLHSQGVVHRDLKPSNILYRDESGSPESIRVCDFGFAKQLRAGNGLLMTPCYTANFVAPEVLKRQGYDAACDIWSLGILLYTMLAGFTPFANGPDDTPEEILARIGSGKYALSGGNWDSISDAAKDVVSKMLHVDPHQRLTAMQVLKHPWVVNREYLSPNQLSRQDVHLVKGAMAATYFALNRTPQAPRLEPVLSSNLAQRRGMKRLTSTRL

PRKD2 (human) = PRKD2 (human) (UniProt Q9BZL6); experiment: Caliper, Mobility shift assay off-chip
TNIK (human) = TNIK (human) (UniProt Q9UKE5); experiment: Caliper, Mobility shift assay off-chip
PDPK1 (human) = PDPK1 (human) (UniProt O15530); experiment: Caliper, Mobility shift assay off-chip
CSNK2A1 (human) = CSNK2A1 (human) (UniProt P68400); experiment: Caliper, Mobility shift assay off-chip
SRPK2 (human) = SRPK2 (human) (UniProt P78362); experiment: Caliper, Mobility shift assay off-chip
AXL (human) = AXL (human) (UniProt P30530); experiment: Caliper, Mobility shift assay off-chip
PRKCD (human) = PRKCD (human) (UniProt Q05655); experiment: Caliper, Mobility shift assay off-chip
PRKCG (human) = PRKCG (human) (UniProt P05129); experiment: Caliper, Mobility shift assay off-chip
PRKAA2 (human) = PRKAA2 (human) (UniProt P54646); experiment: Caliper, Mobility shift assay off-chip
LTK (human) = LTK (human) (UniProt P29376); experiment: Caliper, Mobility shift assay off-chip
DYRK3 (human) = DYRK3 (human) (UniProt O43781); experiment: Caliper, Mobility shift assay off-chip
DYRK3 (human), sequence (O43781 whole entry, looked up): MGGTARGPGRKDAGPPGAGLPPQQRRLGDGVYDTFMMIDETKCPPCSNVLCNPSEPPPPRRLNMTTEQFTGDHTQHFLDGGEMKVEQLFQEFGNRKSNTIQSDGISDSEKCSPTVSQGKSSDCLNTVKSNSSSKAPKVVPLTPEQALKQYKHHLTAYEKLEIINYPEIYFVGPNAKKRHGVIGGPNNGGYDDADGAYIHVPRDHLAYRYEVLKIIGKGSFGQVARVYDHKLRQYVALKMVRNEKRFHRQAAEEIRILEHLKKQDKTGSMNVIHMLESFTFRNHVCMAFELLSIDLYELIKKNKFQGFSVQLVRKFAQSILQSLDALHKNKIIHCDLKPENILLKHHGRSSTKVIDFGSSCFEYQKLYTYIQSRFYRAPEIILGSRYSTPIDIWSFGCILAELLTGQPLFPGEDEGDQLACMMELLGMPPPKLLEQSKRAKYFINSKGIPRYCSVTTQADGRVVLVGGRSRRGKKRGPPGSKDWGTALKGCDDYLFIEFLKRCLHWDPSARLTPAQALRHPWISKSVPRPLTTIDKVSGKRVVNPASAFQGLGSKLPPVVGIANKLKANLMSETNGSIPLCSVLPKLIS

MST1R (human) = MST1R (human) (UniProt Q04912); experiment: Caliper, Mobility shift assay off-chip
MST1R (human), sequence (Q04912 whole entry, looked up): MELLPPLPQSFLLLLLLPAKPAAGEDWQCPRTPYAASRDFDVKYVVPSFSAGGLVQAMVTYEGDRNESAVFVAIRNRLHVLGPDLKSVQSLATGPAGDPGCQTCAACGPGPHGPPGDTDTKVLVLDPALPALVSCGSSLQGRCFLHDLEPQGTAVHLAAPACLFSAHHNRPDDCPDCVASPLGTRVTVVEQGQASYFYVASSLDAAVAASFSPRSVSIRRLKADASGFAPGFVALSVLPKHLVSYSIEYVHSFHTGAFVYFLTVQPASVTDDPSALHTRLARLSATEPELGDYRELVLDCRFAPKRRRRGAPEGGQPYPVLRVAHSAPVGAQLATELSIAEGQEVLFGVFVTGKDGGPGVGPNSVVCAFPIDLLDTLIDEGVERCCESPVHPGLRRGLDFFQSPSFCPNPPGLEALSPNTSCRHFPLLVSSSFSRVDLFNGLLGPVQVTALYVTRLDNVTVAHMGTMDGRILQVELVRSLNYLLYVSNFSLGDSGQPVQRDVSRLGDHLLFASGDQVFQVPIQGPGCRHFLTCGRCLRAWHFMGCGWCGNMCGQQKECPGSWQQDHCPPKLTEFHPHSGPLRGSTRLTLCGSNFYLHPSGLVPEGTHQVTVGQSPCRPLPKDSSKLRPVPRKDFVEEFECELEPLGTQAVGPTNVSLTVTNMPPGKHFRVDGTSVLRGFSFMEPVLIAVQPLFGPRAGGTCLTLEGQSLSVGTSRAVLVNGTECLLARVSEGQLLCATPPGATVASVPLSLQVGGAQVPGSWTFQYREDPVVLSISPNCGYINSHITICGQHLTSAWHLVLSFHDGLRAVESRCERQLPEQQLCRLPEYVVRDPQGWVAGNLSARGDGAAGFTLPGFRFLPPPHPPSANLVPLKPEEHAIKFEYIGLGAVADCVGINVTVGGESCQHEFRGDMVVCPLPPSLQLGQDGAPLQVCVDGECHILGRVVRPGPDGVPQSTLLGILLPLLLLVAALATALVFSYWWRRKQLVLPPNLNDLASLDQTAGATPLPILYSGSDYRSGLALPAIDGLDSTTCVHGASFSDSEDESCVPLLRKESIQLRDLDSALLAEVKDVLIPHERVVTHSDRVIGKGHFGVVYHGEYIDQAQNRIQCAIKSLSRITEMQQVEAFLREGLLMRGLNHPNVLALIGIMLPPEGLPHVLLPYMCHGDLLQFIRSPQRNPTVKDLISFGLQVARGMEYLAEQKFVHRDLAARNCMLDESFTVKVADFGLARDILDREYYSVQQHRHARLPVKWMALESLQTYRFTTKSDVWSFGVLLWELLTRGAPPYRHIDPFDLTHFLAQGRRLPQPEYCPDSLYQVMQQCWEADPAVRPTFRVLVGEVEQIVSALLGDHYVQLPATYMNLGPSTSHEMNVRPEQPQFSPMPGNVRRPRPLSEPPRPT

ALK EML4 (human) = ALK EML4 (human) (UniProt Q9HC35+Q9UM73); experiment: Caliper, Mobility shift assay off-chip
GSK3A (human) = GSK3A (human) (UniProt P49840); experiment: Caliper, Mobility shift assay off-chip
GSK3A (human), sequence (P49840 whole entry, looked up): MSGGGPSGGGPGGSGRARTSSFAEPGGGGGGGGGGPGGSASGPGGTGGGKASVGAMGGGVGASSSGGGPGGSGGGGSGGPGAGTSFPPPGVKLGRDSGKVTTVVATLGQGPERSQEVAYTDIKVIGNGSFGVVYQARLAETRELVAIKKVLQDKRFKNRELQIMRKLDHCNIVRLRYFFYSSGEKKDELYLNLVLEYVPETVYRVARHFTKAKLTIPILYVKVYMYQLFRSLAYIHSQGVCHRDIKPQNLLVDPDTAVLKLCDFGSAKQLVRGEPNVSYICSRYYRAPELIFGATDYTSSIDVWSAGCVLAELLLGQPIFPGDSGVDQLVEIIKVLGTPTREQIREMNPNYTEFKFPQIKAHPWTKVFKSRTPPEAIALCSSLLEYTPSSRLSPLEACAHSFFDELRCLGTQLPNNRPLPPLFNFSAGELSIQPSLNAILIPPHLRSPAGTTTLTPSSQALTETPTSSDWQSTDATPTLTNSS

AKT3 (human) = AKT3 (human) (UniProt Q9Y243); experiment: Caliper, Mobility shift assay off-chip
MAPK14 (human) = MAPK14 (human) (UniProt Q16539); experiment: Caliper, Mobility shift assay off-chip
PASK (human) = PASK (human) (UniProt Q96RG2); experiment: Caliper, Mobility shift assay off-chip
CDK6 (human) = CDK6 (human) (UniProt Q00534); experiment: Caliper, Mobility shift assay off-chip
TSSK3 (human) = TSSK3 (human) (UniProt Q96PN8); experiment: Caliper, Mobility shift assay off-chip
MAP4K4 (human) = MAP4K4 (human) (UniProt O95819); experiment: Caliper, Mobility shift assay off-chip
MARK1 (human) = MARK1 (human) (UniProt Q9P0L2); experiment: Caliper, Mobility shift assay off-chip
ZAP70 (human) = ZAP70 (human) (UniProt P43403); experiment: Caliper, Mobility shift assay off-chip
DDR2 (human) = DDR2 (human) (UniProt Q16832); experiment: Caliper, Mobility shift assay off-chip
PLK2 (human) = PLK2 (human) (UniProt Q9NYY3); experiment: IMAP-FP
PKN1 (human) = PKN1 (human) (UniProt Q16512); experiment: IMAP-FP
SRPK1 (human) = SRPK1 (human) (UniProt Q96SB4); experiment: IMAP-FP
EIF2AK3 (human) = EIF2AK3 (human) (UniProt Q9NZJ5); experiment: IMAP-FP
EIF2AK3 (human), sequence (Q9NZJ5 whole entry, looked up): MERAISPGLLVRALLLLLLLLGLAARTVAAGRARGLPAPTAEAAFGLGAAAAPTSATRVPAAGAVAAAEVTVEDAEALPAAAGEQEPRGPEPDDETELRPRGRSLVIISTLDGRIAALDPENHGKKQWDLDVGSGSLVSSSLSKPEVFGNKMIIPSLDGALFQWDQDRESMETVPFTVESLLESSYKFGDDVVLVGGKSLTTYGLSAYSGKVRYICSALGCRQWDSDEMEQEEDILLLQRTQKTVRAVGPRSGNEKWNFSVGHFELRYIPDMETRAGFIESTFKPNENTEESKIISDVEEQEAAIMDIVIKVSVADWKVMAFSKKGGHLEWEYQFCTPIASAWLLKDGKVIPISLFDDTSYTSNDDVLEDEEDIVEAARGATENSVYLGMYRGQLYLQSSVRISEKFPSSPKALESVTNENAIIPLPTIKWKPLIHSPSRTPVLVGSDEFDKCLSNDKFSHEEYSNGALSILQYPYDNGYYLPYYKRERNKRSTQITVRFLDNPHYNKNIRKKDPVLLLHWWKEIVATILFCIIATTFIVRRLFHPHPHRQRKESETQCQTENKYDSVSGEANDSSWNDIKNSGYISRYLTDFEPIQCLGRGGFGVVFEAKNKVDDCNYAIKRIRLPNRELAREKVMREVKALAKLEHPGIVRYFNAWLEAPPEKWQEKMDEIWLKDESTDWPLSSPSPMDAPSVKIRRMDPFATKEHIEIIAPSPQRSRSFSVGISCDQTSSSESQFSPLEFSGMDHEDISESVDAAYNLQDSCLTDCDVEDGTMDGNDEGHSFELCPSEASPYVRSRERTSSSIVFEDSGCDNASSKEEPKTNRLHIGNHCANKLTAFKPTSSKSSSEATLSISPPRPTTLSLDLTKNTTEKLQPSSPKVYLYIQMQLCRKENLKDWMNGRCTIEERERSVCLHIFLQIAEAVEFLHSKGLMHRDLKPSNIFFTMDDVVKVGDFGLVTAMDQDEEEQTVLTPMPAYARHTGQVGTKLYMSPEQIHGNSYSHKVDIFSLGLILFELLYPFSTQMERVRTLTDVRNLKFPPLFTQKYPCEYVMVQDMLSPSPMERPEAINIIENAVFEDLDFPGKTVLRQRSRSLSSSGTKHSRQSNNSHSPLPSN

Compound `Cc1ccc(Nc2nccc(N(C)c3ccc4c(C)n(C)nc4c3)n2)cc1S(N)(=O)=O` has an inhibition (PRKCH (human); compound 0.02 µM) of 6.7%, an inhibition (PRKCH (human); compound 0.2 µM) of 4.3% and an inhibition (ERBB4 (human); compound 0.02 µM) of 8.4%. For the same compound, the inhibition (ERBB4 (human); compound 0.2 µM) was 2.6%, the inhibition (CDC42BPA (human); compound 0.02 µM) was 13.3% and the inhibition (CDC42BPA (human); compound 0.2 µM) was 11%. It also gave an inhibition (RPS6KB2 (human); compound 0.02 µM) of 4.3%, an inhibition (RPS6KB2 (human); compound 0.2 µM) of 6.7% and an inhibition (RPS6KA2 KD1 KD2 (human); compound 0.02 µM) of 6.3%. For the same compound, the inhibition (RPS6KA2 KD1 KD2 (human); compound 0.2 µM) was 8.4%, the inhibition (PRKD2 (human); compound 0.02 µM) was -2.2% and the inhibition (PRKD2 (human); compound 0.2 µM) was -1.5%. For the same compound, the inhibition (TNIK (human); compound 0.02 µM) was 7.3%, the inhibition (TNIK (human); compound 0.2 µM) was 46.6% and the inhibition (PDPK1 (human); compound 0.02 µM) was -5%. The inhibition (PDPK1 (human); compound 0.2 µM) was -3.3%, the inhibition (CSNK2A1 (human); compound 0.02 µM) was -3% and the inhibition (CSNK2A1 (human); compound 0.2 µM) was -2.4%. The inhibition (SRPK2 (human); compound 0.02 µM) was -4.8%, the inhibition (SRPK2 (human); compound 0.2 µM) was -3.2% and the inhibition (AXL (human); compound 0.02 µM) was 1.7%. The inhibition (AXL (human); compound 0.2 µM) was 10.3%, the inhibition (PRKCD (human); compound 0.02 µM) was -1.6% and the inhibition (PRKCD (human); compound 0.2 µM) was -4.4%. The inhibition (PRKCG (human); compound 0.02 µM) was 4%, the inhibition (PRKCG (human); compound 0.2 µM) was -6.3% and the inhibition (PRKAA2 (human); compound 0.02 µM) was 7%. For the same compound, the inhibition (PRKAA2 (human); compound 0.2 µM) was -6.6%, the inhibition (LTK (human); compound 0.02 µM) was 5.1% and the inhibition (LTK (human); compound 0.2 µM) was 11.9%. The inhibition (DYRK3 (human); compound 0.02 µM) was -2.2%, the inhibition (DYRK3 (human); compound 0.2 µM) was -1.4% and the inhibition (MST1R (human); compound 0.02 µM) was 2.1%. It also gave an inhibition (MST1R (human); compound 0.2 µM) of 4.9%, an inhibition (ALK EML4 (human); compound 0.02 µM) of -0.3% and an inhibition (ALK EML4 (human); compound 0.2 µM) of 6.8%. It also gave an inhibition (GSK3A (human); compound 0.02 µM) of 1.8%, an inhibition (GSK3A (human); compound 0.2 µM) of 5.1% and an inhibition (AKT3 (human); compound 0.02 µM) of -3.2%. The inhibition (AKT3 (human); compound 0.2 µM) was -2.6%, the inhibition (MAPK14 (human); compound 0.02 µM) was -9% and the inhibition (MAPK14 (human); compound 0.2 µM) was -2.5%. For the same compound, the inhibition (PASK (human); compound 0.02 µM) was -0.6%, the inhibition (PASK (human); compound 0.2 µM) was 3.1% and the inhibition (CDK6 (human); compound 0.02 µM) was 6.2%. The inhibition (CDK6 (human); compound 0.2 µM) was 8.2%, the inhibition (TSSK3 (human); compound 0.02 µM) was 2.2% and the inhibition (TSSK3 (human); compound 0.2 µM) was 6.7%. The inhibition (MAP4K4 (human); compound 0.02 µM) was 3.9%, the inhibition (MAP4K4 (human); compound 0.2 µM) was 24.6% and the inhibition (MARK1 (human); compound 0.02 µM) was 4.6%. For the same compound, the inhibition (MARK1 (human); compound 0.2 µM) was 3%, the inhibition (ZAP70 (human); compound 0.02 µM) was 7% and the inhibition (ZAP70 (human); compound 0.2 µM) was 13.3%. The inhibition (DDR2 (human); compound 0.02 µM) was 34.2%, the inhibition (DDR2 (human); compound 0.2 µM) was 85% and the inhibition (PLK2 (human); compound 0.02 µM) was 3.9%. The inhibition (PLK2 (human); compound 0.2 µM) was -0.8%, the inhibition (PKN1 (human); compound 0.02 µM) was -20.5% and the inhibition (PKN1 (human); compound 0.2 µM) was -27.6%. The inhibition (SRPK1 (human); compound 0.02 µM) was -6.8%, the inhibition (SRPK1 (human); compound 0.2 µM) was -3.6% and the inhibition (EIF2AK3 (human); compound 0.02 µM) was -15%. For the same compound, the inhibition (EIF2AK3 (human); compound 0.2 µM) was -17%.
